Measured values published in patent publication US9302986B2, “Substituted 3-haloallylamine inhibitors of ASSAO and uses thereof” (Boehringer Ingelheim International GmbH, priority 2012, dated 2016).
Counter-ions that a name gives are not always drawn.

Assays:
Recombinant human DAO = Recombinant human DAO (Homo sapiens (Human), UniProt P19801); experiment: Inhibition of human recombinant diamine oxidase; type: biochemical; details: putrescine 200 μM
[1] = target: Endogenous SSAO/VAP-1 in rat fat (Rattus norvegicus (Rat), UniProt O08590); experiment: Inhibition of SSAO/VAP-1 in rat fat homogenate; type: biochemical; details: benzylamine 30 μM
Method: Abdominal fat from BALB/c mice, Wistar or Sprague Dawley rats, which are tissues enriched with SSAO/VAP-1-were surgically removed. For every gram of animal abdominal fat tissue, 1 mL of 0.1 M NaPO4 buffer (pH 7.4) was added. Tissues were homogenized using IKA Ultra-Turrax T 10 homogenizer for 3 min, homogenate was centrifuged for 15 min at 3000×g. The middle layer (clear supernatant) was removed without disturbing the top layer (high fat content) or the debris on the bottom of the tube. SSAO/VAP-1 activity was determined by checking the fluorescent signal. Km/Vmax values were determined and the fat homogenate was aliquoted and stored at −80 C until assays were performed.

Recombinant human MAO-B = Recombinant human MAO-B (Homo sapiens (Human), UniProt P27338); experiment: Inhibition of human recombinant MAO-B; type: biochemical; details: benzylamine 100 μM
Method: This vector containing human SSAO/VAP-1 residues was transfected into CHO-K1 glycosylation mutant cell line, Lec 8. A clone stably expressing human SSAO/VAP-1 was isolated and cultured in large scale. Active human SSAO/VAP-1 was purified and recovered using immunoaffinity chromatography. This was used as source for SSAO/VAP-1 activity. A high-throughput colorimetric assay was developed using either 96 or 384 well format. Briefly, in a standard 96 well plate assay 50 μL of purified human SSAO/VAP-1 (0.25 μg/mL) in 0.1 M NaPO4 buffer (pH 7.4) was added into each well.
The specificity of invention compounds was tested by determining their ability to inhibit MAO-B activities in vitro. Recombinant human MAO-B (0.06 mg/mL; Sigma Aldrich) was used as source of MAO-B enzyme activities.

recombinant human VAP-1 = recombinant human VAP-1 (Homo sapiens, UniProt Q16853); experiment: Inhibition of human recombinant SSAO/VAP-1 expressed in HMEC cells (cell lysate)
Method: A clone stably expressing human SSAO/VAP-1 was selected and was stored in liquid nitrogen until cell lysate was required for colorimetric assay. Briefly, HMEC cell expressing human SSAO/VAP-1 were grown in several 10 cm petri dishes, once the cells reached 100% confluency, cells were harvested and homogenates were prepared. Cells were washed twice with 5 mL of chilled HES buffer (20 mM HEPES, 1 mM EDTA, 250 mM sucrose, pH 7.4). HES buffer containing 1× protease inhibitor (Sigma Aldrich) and added and cells were incubated on ice for 3 min. Buffer was removed and cells were scraped and transferred to a centrifuge tube. Cell lysates were prepared by passing through 23 G needle for, 10 times and followed by 27 G needle for 10 times. Alternatively the cell lysates were prepared by using IKA Ultra-Turrax T 10 homogenizer for 3 min for every 10 mL of cell suspensions. Cells were then spun for 5 min at 300×g. The clear supernatant was transferred to new centrifuge tube and stored at −80° C. until colorimetric assay was performed. Prior to the assay, 0.5 mM pargyline was added in order to inhibit any residue MAO activities. […] Briefly, 50 μL of cell lysate was incubated with test compounds for 30 min at 37° C.

[2] = test system: LPS-induced neuroinflammation; experiment: Parkinson's disease Model A: systemic exposure to LPS; type: in vivo, Long Evans rats; details: 2 mg/kg ip
Method: Parkinson's disease is a pathological, age-related neurodegenerative disorder, characterized by a specific and progressive degeneration of dopaminergic neurons.
Long Evans rats were dosed intraperitoneal (ip) with 2 mg/kg of Compound 9 or vehicle 1 h before the first (time 0 h) and the third (time 24 h) injections of LPS. At time 0 the animals received a dose of 10 mg/kg of LPS. At time 6 and 24 h the animals were dosed with 3 mg/kg of LPS solution, ip. 30 h after the first LPS injection, the animals received ip injections of lethabarb and were transcardially perfused with 400 ml. PBS at 4° C. followed by 400 ml of 4% paraformaldehyde (PFA). The brains were post fixed overnight in 4% PFA at 4° C. followed by 20% sucrose solution for 24 h. 30 μm sections were collected and stained for immunofluorescence, immunohistochemistry and western blot analysis.

[3] = test system: LPS-induced lung inflammation; experiment: Acute lung inflammation in the LPS driven model; details: 2 mg/kg
Method: The incision was closed with wound clips and the mice returned to cages.
Six hours after LPS/saline injection, the mice were anesthetized, the wound clips removed, the trachea was cannulated with a 23G blunt needle, and the lungs lavaged eight times with 0.5 ml heparinized saline. The lavage was pooled, gently inverted, and a sample retained for white blood cell (WBC) differential analysis. The remainder of the lavage was centrifuged, the supernatants used for cytokine analysis.

Chain of Recombinant human DAO (P19801 20-751): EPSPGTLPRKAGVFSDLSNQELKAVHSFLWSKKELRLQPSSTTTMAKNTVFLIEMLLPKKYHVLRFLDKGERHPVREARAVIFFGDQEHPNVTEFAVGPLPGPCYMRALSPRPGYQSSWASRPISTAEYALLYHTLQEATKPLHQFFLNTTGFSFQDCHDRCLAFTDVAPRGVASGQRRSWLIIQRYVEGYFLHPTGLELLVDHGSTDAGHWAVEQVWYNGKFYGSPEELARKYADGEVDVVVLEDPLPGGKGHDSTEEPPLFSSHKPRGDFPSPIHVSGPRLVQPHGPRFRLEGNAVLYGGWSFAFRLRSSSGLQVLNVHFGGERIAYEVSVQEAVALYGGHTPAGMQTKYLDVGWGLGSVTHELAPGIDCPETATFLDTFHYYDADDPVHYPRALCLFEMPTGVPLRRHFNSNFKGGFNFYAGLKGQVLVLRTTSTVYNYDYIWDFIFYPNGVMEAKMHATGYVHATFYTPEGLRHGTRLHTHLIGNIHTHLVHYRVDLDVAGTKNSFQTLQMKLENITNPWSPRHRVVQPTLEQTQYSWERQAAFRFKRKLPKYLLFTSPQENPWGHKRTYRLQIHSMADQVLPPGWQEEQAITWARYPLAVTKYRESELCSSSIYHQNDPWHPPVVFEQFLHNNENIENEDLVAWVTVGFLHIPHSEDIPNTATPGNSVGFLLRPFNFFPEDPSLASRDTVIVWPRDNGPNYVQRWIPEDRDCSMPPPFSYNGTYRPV
Chain of Recombinant human MAO-B (P27338 whole entry): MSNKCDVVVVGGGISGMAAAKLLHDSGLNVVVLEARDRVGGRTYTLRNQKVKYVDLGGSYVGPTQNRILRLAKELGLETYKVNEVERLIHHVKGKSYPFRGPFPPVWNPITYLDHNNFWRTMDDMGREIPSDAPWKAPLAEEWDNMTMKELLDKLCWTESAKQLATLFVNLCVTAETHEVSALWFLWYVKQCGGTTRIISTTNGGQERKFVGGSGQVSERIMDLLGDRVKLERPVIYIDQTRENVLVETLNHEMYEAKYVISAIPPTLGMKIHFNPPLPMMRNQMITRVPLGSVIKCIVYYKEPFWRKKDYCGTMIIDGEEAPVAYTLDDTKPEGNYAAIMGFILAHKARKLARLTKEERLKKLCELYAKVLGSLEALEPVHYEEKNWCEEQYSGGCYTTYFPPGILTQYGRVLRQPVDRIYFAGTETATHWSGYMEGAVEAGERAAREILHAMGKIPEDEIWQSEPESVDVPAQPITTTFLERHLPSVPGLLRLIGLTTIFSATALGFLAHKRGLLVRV
Chain of Endogenous SSAO/VAP-1 in rat fat (O08590 whole entry): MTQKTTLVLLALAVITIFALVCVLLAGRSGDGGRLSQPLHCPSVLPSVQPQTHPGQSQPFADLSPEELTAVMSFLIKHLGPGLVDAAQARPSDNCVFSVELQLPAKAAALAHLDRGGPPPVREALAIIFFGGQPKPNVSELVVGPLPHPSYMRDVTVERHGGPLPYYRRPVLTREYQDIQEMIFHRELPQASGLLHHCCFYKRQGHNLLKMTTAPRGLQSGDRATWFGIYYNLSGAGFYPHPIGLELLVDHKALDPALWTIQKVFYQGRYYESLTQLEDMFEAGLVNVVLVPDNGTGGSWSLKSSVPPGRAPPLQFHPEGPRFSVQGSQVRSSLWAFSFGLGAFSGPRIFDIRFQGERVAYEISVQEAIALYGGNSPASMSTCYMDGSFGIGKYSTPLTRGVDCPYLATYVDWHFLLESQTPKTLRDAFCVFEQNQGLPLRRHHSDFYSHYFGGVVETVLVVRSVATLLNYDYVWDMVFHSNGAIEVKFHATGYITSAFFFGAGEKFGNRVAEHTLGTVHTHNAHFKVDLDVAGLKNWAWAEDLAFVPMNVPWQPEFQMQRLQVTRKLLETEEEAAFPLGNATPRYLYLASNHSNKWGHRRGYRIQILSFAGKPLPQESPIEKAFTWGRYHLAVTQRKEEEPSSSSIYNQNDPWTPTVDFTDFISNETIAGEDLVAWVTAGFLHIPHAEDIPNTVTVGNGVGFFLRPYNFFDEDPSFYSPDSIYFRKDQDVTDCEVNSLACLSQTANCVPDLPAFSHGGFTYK

SMILES | IC50 (Recombinant human DAO) [µM] | IC50 [1] [µM] | IC50 (Recombinant human MAO-B) [µM] | IC50 (recombinant human VAP-1) [µM] | neutrophil infiltration in the dorso-lateral striatum and hippocampus ([2]; 30 h after first LPS injection) | microglial cell recruitment and activation in the substantia nigra and dorso-lateral striatum ([2]; dendrites length, surface and volume) | IL-6 levels ([3]; lavage supernatant) | TNF-α levels ([3]; lavage supernatant) | neutrophil infiltration ([3]; lung lavage six hours after LPS)
NC/C(=C/F)COc1ccc(C(N)=O)cc1 [Compound 2, (Z)-4-(2-(Aminomethyl)-3-fluoroallyloxy)benzamide] | < 0.1 | < 0.1 | > 1 | < 0.1 |  |  |  |  | 
NC/C(=C\F)COc1ccc(C(N)=O)cc1 [Compound 3, (E)-4-(2-(Aminomethyl)-3-fluoroallyloxy)benzamide] | > 1 | < 0.1 | > 10 | < 0.1 |  |  |  |  | 
CN(C)C(=O)c1ccc(OC/C(=C\F)CN)c(F)c1 [Compound 4, (Z)-4-(2-(Aminomethyl)-3-fluoroallyloxy)-3-fluoro-N,N-dimethylbenzamide] | < 1 | < 0.1 | > 0.1 |  |  |  |  |  | 
CN(C)C(=O)c1ccc(OC/C(=C\F)CN)c(Cl)c1 [Compound 6, (Z)-4-(2-(Aminomethyl)-3-fluoroallyloxy)-3-chloro-N,N-dimethylbenzamide] | < 1 |  | > 1 |  |  |  |  |  | 
COc1cc(C(=O)N(C)C)ccc1OCC(=CF)CN [Compound 7, 4-(2-(Aminomethyl)-3-fluoroallyloxy)-3-methoxy-N,N-dimethylbenzamide] | < 1 |  | > 10 | < 0.1 |  |  |  |  | 
CN(C)C(=O)c1ccc(SCC(=CF)CN)cc1 [Compound 8, 4-(2-(Aminomethyl)-3-fluoroallylthio)-N,N-dimethylbenzamide] |  |  | > 1 | < 0.1 |  |  |  |  | 
NC/C(=C/F)COc1ccc(S(N)(=O)=O)cc1 [Compound 9, (Z)-4-(2-(Aminomethyl)-3-fluoroallyloxy)benzenesulfonamide] | < 1 | < 0.1 | > 10 | < 0.1 | reduced | reduction | diminution | diminution | significant reduction
CN(C)S(=O)(=O)c1ccc(OC/C(=C\F)CN)cc1 [Compound 10, (Z)-4-(2-(Aminomethyl)-3-fluoroallyloxy)-N,N-dimethylbenzenesulfonamide] | > 1 | < 0.1 | > 10 |  |  |  |  |  | 
NC/C(=C\F)COc1ccc(S(N)(=O)=O)cc1 [Compound 11, (E)-4-(2-(Aminomethyl)-3-fluoroallyloxy)benzenesulfonamide] | > 10 | < 0.1 | > 10 | < 0.1 |  |  |  |  | 
CN(C)C(=O)c1ccc(OC/C(=C/F)CN)cc1 [Compound 13, hydrochloride] | > 1 | < 0.1 | > 0.1 | < 0.1 |  |  |  |  | 
CN(C)S(=O)(=O)c1ccc(OC/C(=C/F)CN)cc1 [Compound 14, (E)-4-(2-(Aminomethyl)-3-fluoroallyloxy)-N,N-dimethylbenzenesulfonamide] | > 10 | < 0.1 | > 10 |  |  |  |  |  | 
CN(C)S(=O)(=O)c1cccc(OC/C(=C\F)CN)c1 [Compound 15, (Z)-3-(2-(Aminomethyl)-3-fluoroallyloxy)-N,N-dimethylbenzenesulfonamide] |  | < 0.1 | > 100 |  |  |  |  |  | 
CN(C)C(=O)c1ccc(OC/C(=C\F)CN)cc1 [Compound 18, (Z)-4-(2-(Aminomethyl)-3-fluoroallyloxy)-N,N-dimethylbenzamide] | < 0.1 | < 0.1 | > 0.1 | < 0.1 |  |  |  |  | 
CN(C)C(=O)c1ccc(OC/C(=C\F)CN)c(Br)c1 [Compound 20, (Z)-4-(2-(Aminomethyl)-3-fluoroallyloxy)-3-bromo-N,N-dimethylbenzamide] | < 1 |  | > 1 |  |  |  |  |  | 
CCN(CC)C(=O)c1ccc(OC/C(=C/F)CN)cc1 [Compound 24, (E)-4-(2-(Aminomethyl)-3-fluoroallyloxy)-N,N-diethylbenzamide] | > 10 | < 0.1 | > 1 |  |  |  |  |  | 
CNC(=O)c1ccc(OC/C(=C/F)CN)cc1 [Compound 25, (E)-4-(2-(Aminomethyl)-3-fluoroallyloxy)-N-methylbenzamide] | < 1 | < 0.1 | > 1 | < 0.1 |  |  |  |  | 
Cc1cc(OC/C(=C\F)CN)ccc1C(=O)N(C)C [Compound 26, (Z)-4-(2-(Aminomethyl)-3-fluoroallyloxy)-N,N,2-trimethylbenzamide] | < 1 |  | > 1 | < 0.1 |  |  |  |  | 
CNS(=O)(=O)c1ccc(OC/C(=C/F)CN)cc1 [Compound 28, (E)-4-(2-(Aminomethyl)-3-fluoroallyloxy)-N-methylbenzenesulfonamide] | > 10 | < 0.1 | > 10 |  |  |  |  |  | 
CNS(=O)(=O)c1ccc(OC/C(=C\F)CN)cc1 [Compound 29, (Z)-4-(2-(Aminomethyl)-3-fluoroallyloxy)-N-methylbenzenesulfonamide] | > 1 | < 0.1 | > 10 |  |  |  |  |  | 
CCNS(=O)(=O)c1ccc(OC/C(=C/F)CN)cc1 [Compound 30, (E)-4-(2-(Aminomethyl)-3-fluoroallyloxy)-N-ethylbenzenesulfonamide] | > 10 | < 0.1 | > 10 |  |  |  |  |  | 
CCNS(=O)(=O)c1ccc(OC/C(=C\F)CN)cc1 [Compound 31, (Z)-4-(2-(Aminomethyl)-3-fluoroallyloxy)-N-ethylbenzenesulfonamide] | < 1 | < 0.1 | > 1 |  |  |  |  |  | 
CC(C)NS(=O)(=O)c1ccc(OC/C(=C/F)CN)cc1 [Compound 32, (E)-4-(2-(Aminomethyl)-3-fluoroallyloxy)-N-isopropylbenzenesulfonamide] | > 10 | < 0.1 | > 10 |  |  |  |  |  | 
CC(C)NS(=O)(=O)c1ccc(OC/C(=C\F)CN)cc1 [Compound 33, (Z)-4-(2-(Aminomethyl)-3-fluoroallyloxy)-N-isopropylbenzenesulfonamide] | < 1 | < 0.1 | > 10 |  |  |  |  |  | 
NC/C(=C/F)CCc1ccc(F)cc1 [Mofegiline, reference compound] |  | 0.006 |  |  |  |  |  |  | 
